The values below come from ChEMBL document CHEMBL1759917, “Synthesis of purin-2-yl and purin-6-yl-aminoglucitols as C-nucleosidic ATP mimics and biological evaluation as FGFR3 inhibitors” (Eur J Med Chem, 2011).

Calls of active or inactive are those of the source. The calls are words filed in the database; no cut-off is given here.

For the test, the target named is Fibroblast growth factor receptor 3 (Homo sapiens) (UniProt P22607). The experiment in a line: Inhibition of FGFR3 at 50 uM.
Chain of Fibroblast growth factor receptor 3 (Homo sapiens) (P22607 23-806 limits assumed): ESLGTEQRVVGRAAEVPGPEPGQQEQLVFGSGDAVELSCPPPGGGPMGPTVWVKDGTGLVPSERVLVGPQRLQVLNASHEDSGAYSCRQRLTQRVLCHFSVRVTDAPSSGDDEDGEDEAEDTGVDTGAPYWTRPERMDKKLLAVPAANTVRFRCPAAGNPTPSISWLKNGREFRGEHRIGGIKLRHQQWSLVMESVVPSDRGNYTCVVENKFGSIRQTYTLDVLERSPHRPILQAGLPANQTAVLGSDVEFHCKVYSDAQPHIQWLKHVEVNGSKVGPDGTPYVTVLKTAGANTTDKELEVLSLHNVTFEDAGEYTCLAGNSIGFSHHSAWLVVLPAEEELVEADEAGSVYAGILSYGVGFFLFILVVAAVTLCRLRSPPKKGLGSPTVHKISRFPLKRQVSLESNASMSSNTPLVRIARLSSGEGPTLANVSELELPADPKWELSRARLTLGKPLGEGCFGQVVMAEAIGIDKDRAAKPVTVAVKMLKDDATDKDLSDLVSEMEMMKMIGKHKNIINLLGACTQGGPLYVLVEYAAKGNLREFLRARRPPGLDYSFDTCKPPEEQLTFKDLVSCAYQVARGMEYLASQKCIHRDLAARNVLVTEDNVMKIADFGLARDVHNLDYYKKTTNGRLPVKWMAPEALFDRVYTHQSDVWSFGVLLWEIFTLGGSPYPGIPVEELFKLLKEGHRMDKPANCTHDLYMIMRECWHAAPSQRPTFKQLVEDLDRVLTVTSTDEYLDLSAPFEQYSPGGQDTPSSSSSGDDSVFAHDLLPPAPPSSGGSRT
In the case of `COc1ccc(CCNc2nc(NC[C@@H]3O[C@H](CO)[C@@H](O)[C@@H]3O)nc3[nH]cnc23)cc1OC`, the “inhibition call (active / not active)” value was “Active”.
With `OC[C@H]1O[C@@H](CNc2nc(NCCc3ccccc3)nc3[nH]cnc23)[C@@H](OCc2ccccc2)[C@@H]1OCc1ccccc1` the entry was “Active”; with `Ic1nc(NCCN2CCOCC2)c2nc[nH]c2n1`, “Active”; with `Nc1ncnc2c1ncn2C[C@@H]1O[C@H](CO)[C@@H](O)[C@H]1O`, “inactive”.
For `OC[C@H]1O[C@@H](CNc2nc(I)nc3[nH]cnc23)[C@@H](OCc2ccccc2)[C@@H]1OCc1ccccc1`, the “inhibition call (active / not active)” value is “Active”.
`OC[C@H]1O[C@@H](CNc2nc(NCCN3CCOCC3)c3nc[nH]c3n2)[C@@H](O)[C@@H]1O`: the “inhibition call (active / not active)” value is “Active”.
Next, `OC[C@H]1O[C@@H](CNc2nc(NCCc3ccccc3)nc3[nH]cnc23)[C@@H](O)[C@@H]1O`: “Active”; `OC[C@H]1O[C@@H](CNc2nc(NCCc3ccccc3)c3nc[nH]c3n2)[C@@H](O)[C@@H]1O`: “Active”.
Turning to `CCN(CC)CCCNc1nc(N)c2ncn(C[C@@H]3O[C@H](CO)[C@@H](O)[C@H]3O)c2n1`, the “inhibition call (active / not active)” value was “inactive”.
With `COc1ccc(CCNc2nc(NC[C@@H]3O[C@H](CO)[C@@H](O)[C@@H]3O)c3nc[nH]c3n2)cc1OC` the entry was “Active”.
For the compound `OC[C@H]1O[C@@H](CNc2nc(NCCc3ccccc3)c3nc[nH]c3n2)[C@@H](OCc2ccccc2)[C@@H]1OCc1ccccc1`, the “inhibition call (active / not active)” value is “Active”.
Next, `Nc1nc(N)c2ncn(C[C@@H]3O[C@H](CO)[C@@H](O)[C@H]3O)c2n1`: “inactive”; `CCN(CC)CCCNc1nc(Nc2ccccc2)c2ncn(C[C@@H]3O[C@H](CO)[C@@H](O)[C@H]3O)c2n1`: “inactive”; `Nc1nc(Nc2ccccc2)c2ncn(C[C@@H]3O[C@H](CO)[C@@H](O)[C@H]3O)c2n1`: “inactive”.
With `Nc1ncc2ncn(C[C@@H]3O[C@H](CO)[C@@H](O)[C@H]3O)c2n1`, the “inhibition call (active / not active)” value was “inactive”.
As to `OC[C@H]1O[C@@H](CNc2nc(NCCN3CCOCC3)nc3[nH]cnc23)[C@@H](O)[C@@H]1O`, the “inhibition call (active / not active)” value was “Active”.
